According to patent US9987302B2, “Methods of treating DNA damage” (priority 2011, dated 2018):

Experiments:
U2OS-SCR reporter cells = assay: HR/SCR reporter assay (GFP-positive cells by flow cytometry and fluorescence microscopy); assay type: cell-based; conditions: for number of GFP-positive cells (HR repair of DSB): U2OS-SCR cells transfected with SceI 24 hours, then treated 24 hours, CO 250 ppm; for CO-mediated HR (GFP-positive cells) under ATM/ATR blockade: inhibitor 20 μM 1 hour prior to CO 250 ppm for 24 hours
From the text: To test this, the U20S cell line containing the HR/SCR (homologous recombination/sister chromatid recombination) reporter was used as previously described (12,13). I-SceI endonuclease was used to introduce a double strand break (DSB) within the reporter in U2OS cells. The efficiency of homologous recombination induced by I-SceI correlated with generation of wild type GFP by gene conversion.
(§1) Many of the effects observed with HO-1 are mediated by one or more of its enzymatic products biliverdin or CO. Therefore, the role of biliverdin and CO was tested separately in HR during DSB and DNA repair. U2OS-SCR reporter cells after transfection with SceI for 24 hours were treated with CO 250 (ppm) for 24 hours. […] No effects of CO were observed on NHEJ-mediated DNA repair as measured by number of XHATM-resistant colonies.
(§2) Lysates of PC3 and HEK cells were treated with CO (250 ppm) for 2′ to 1 h. […] Therefore, the two major DNA repair kinases, ATM and ATR, were examined to see if they are implicated in accelerated HR in the presence of CO or HO-1. […] U20S-SCR reporter cells were transfected with SceI for 24 hours and treated with CGK733 (20 μM) or DMSO for 1 hour prior treatment with CO (250 ppm) for 24 hours. U20S-SCR reporter cells were co-transfected with SceI for 24 hours and KU55933 (20 μM) or DMSO for 1 hour prior treatment with CO (250 ppm) was applied for following 24 hours. […] U20S-SCR reporter cells were co-transfected with SceI and HO-1 for 24 hours and CGK733 was applied for following 24 hours.
(§3) U203 HR/SCR cells were maintained in the DMEM medium (Gibco, Invitrogen) containing 10% FBS and antibiotics. pPHW1 cells (NHEJ model) were maintained in the DMEM medium with 10% FBS and antibiotics. Mouse kidney fibroblasts were obtained from adult Hmox1^−/− and Hmox1^+/+ mice and culture between passages 4-7 in DMEM medium supplemented with 10% FBS and antibiotics. HEK293 were purchased from ATCC and were cultured following manufacturer's protocol. For CO in vitro studies, cells were exposed to 250 ppm CO, 5% CO2 in […] for 2 minutes to 24 hours. Cells were irradiated with 10 Gy and harvested at different time points after single exposure.
HR/SCR reporter U20S cells were used as previously described. Briefly, GFP+ cells were analyzed 2 days postransfection by flow cytometry (FACScan, BD Biosciences) and fluorescence microscopy. Images of GFP-positive cells were captured of randomized fields using a Zeiss Apotome fluorescent microscope.

H2AXγ foci in tissues = assay: DNA damage (H2AXγ foci) in tissues of nude mice with PC3 tumors treated with doxorubicin ± CO; assay type: in vivo
Method: Based on the effects observed in vitro, the salutary effects of CO were tested in an in vivo model of DNA damage in mice. Tissues were harvested 14 days after treatment of nude mice with established PC3 tumors (2 weeks) with […] (Control) or doxorubicin (8 mg/kg, twice per week, i.v.)±CO (daily, 1 hour, 250 ppm). Doxorubicin was employed to induce DNA damage in the tissues during chemotherapeutic treatment of tumor xenografts in nude mice.
Nu/nu mice were purchased from Taconic (Hudson, N.Y.) at 7 weeks of age. Those mice were used in a complementary experiment of a subcutaneous tumor model of PC3 cells injected into the right flank of mice. Doxorubicin (8 mg/kg, Sigma) was given i.v. twice per week and mice were exposed to CO daily (250 ppm for 1 hour). Tissues were harvested after 2 weeks of treatment.

HEK cells = assay: Immunoblot of DNA repair signaling after CO exposure; assay type: cell-based; conditions: CO 250 ppm, 2 minutes to 1 h
Method: as §2, §3

pPHW1 cells (NHEJ model) = assay: NHEJ-mediated DNA repair (number of XHATM-resistant colonies); assay type: cell-based
Method: as §1, §3

[1] = test system: lung and intestine gene expression; assay: Gene expression in tissues of mice exposed to inhaled CO (real time PCR); assay type: in vivo
Method: This is important given that the lung has such a high rate of cellular turnover. The increase in expression of these genes is associated with decreased senescence and extension of life span.
Male C57Bl/6 mice were exposed to inhaled carbon monoxide at 250 parts per million (ppm) for 1 hour. […] Real time PCR for telomerase in lungs, and topoisomerase (responsible for unwinding of DNA) and p16 (cell cycle suppressor) in intestines was performed, and expression was compared to air-exposed controls (FIG. 10). Results represent mean±SD of at least 3 mice/group, * p<0.05.

irradiated mice = assay: Radiation-induced model of DNA damage (lethal irradiation, 10 Gy); assay type: in vivo
Method: To support the observations with chemical genotoxins, a radiation-induced model of DNA damage was also used. Endogenous HO-1 is induced early in response to IR or doxorubicin and its expression is sustained for 24-72 hours in the spleen, liver and kidney (FIGS. 7A-B). Kidneys and spleen were harvested after 2 hours after irradiation. To evaluate the role of exogenous CO, mice were pretreated with CO for 1 hour prior to either a lethal or sublethal dose of irradiation and then daily for 1 hour. Spleens and intestines of mice were pretreated with Air or CO (250 ppm) 1 hour prior lethal dose of irradiation (10 Gy) and treated daily with CO for 11 days. […] Tissues were harvested 2 hours after irradiation. To evaluate the role of H2AX signaling in CO effects on DNA repair, marginal bone marrow transplantation of BM cells from H2ax^−/− and H2ax^+/+ mice into wild type irradiated recipients was used. Mice were treated with CO prior lethal dose of irradiation (10 Gy) and thereafter after receiving BM.
Male C57BL/6 mice 7-9 weeks of age were purchased from Jackson Laboratories (Bar Harbor, Me.). Mice were held under SPF conditions and the experiments were approved by the IACUC at BIDMC. Mice were irradiated with 10 Gy (lethal dose) or 5 Gy (sublethal dose) and the protocol was approved by Radiation Safety Officer at BIDMC and the IACUC. Mice were exposed in plexiglass chamber to CO for 1 hour, 250 ppm prior irradiation and thereafter every day for 1 hour.
Mice were lethally irradiated and transplanted with […] i.v. immediately after irradiation. The amount of injected BM was sufficient for recovery of 40% mice.

[2] = test system: fibroblasts from Hmox1+/+ and Hmox1−/− mice; assay: H2AX phosphorylation / γ-H2AX foci in mouse fibroblasts treated with genotoxins; assay type: cell-based; conditions: doxorubicin 10 μg/ml, camptothecin 1 μg/ml; for phosphorylation of histone H2AX and γ-H2AX foci: Hmox+/+ fibroblasts
Method: Representative pictures are shown from at least two independent experiments in duplicates. Fibroblasts were treated with doxorubicin (10 μg/ml) for 2-4 hr.
as §3

HEK293 cells = assay: Western blot of DNA repair signaling in HEK293 cells treated with genotoxins; assay type: cell-based; conditions: 2 min to 2 h
Method: The direct effects of HO-1 was tested on signaling pathways in response to the DNA damaging agents, doxorubicin, camptothecin, or irradiation in loss and gain of function studies with HO-1. HEK293cells express high basal levels of HO-1 due to presence of large T antigen. HEK293 cells were transduced with micro-adapted shRNA to stably deplete HO-1 and then exposed to camptothecin, doxorubicin or irradiation. HEK293 cells with stable knockdown of HO-1 (mirHO-1) and control cells were treated with camptothecin (1 μg/ml) for 2′-2 h. The levels of HO-1 and DNA repair signaling proteins activation was measured by Western blot.
The status of the major DNA repair kinases, ATR, and ATM and their downstream targets was evaluated in HEK293 cells treated with camptothecin.
HEK mirHO-1 and control cells treated with doxorubicin (10 μg/ml) for 2′-2 h is shown. […] Akt is a loading control for the immunoblot for P-p53.

[3] = CO 250 ppm 1 hour, harvested immediately, versus air
[4] = CO 1 hour, harvested at 24 hours

## C=CC1=C(C)/C(=C/C2=NC(=C\c3[nH]c(/C=C4\NC(=O)C(C)=C4C=C)c(C)c3CCC(=O)O)/C(CCC(=O)O)=C2C)NC1=O [Biliverdin, biliverdin]
U2OS-SCR reporter cells
  number of GFP-positive cells (HR repair of DSB): no effect

## O=C(NC(NC(=S)Nc1ccc(F)c([N+](=O)[O-])c1)C(Cl)(Cl)Cl)C(c1ccccc1)c1ccccc1 (centres unmarked) [CGK733]
U2OS-SCR reporter cells; co-transfected with SceI and HO-1 for 24 hours, inhibitor applied following 24 hours
  HO-1-induced HR (GFP-positive cells) in presence of inhibitor: did not increase HR
U2OS-SCR reporter cells
  CO-mediated HR (GFP-positive cells) under ATM/ATR blockade: significantly decreased

## [C-]#[O+] [CO, carbon monoxide]
U2OS-SCR reporter cells
  number of GFP-positive cells (HR repair of DSB): significantly increased
H2AXγ foci in tissues; CO daily, 1 hour, 250 ppm, with doxorubicin
  severity of doxorubicin-induced DNA damage (H2AXγ) in all organs: significantly decreased
HEK cells
  phosphorylation of Brca1, ATR and ATM: induced rapid phosphorylation
pPHW1 cells (NHEJ model)
  NHEJ-mediated DNA repair, number of XHATM-resistant colonies: No effects
[1]; [3]
  expression of p16 in intestines: increases expression
  expression of telomerase in lungs: increases expression
  expression of topoisomerase in intestines: increases expression
[1]; [4]
  expression of SIRT1 in the lung: increased expression
  expression of TERT in the lung: increased expression
Irradiated mice; CO 250 ppm 1 hour prior to 10 Gy, then daily for 11 days
  sustained H2AXγ foci formation in spleen and intestine: significant inhibition
Irradiated mice; CO 1 hour prior to irradiation, tissues harvested 2 hours after irradiation, versus air
  P-p53, P-Brca1, P-ATM and early P-H2AX in peripheral blood mononuclear cells and bone marrow: strong induction
Irradiated mice; lethal irradiation, CO 250 ppm 1 hour prior and daily, n=6/group, p=0.031 versus air (50%)
  survival rate, mice alive >10 days: 80%
Irradiated mice; marginal bone marrow transplantation into wild type recipients irradiated with 10 Gy
  CO-mediated protection against irradiation-induced death with H2ax−/− donor BM: reversed

## COc1cccc2c1C(=O)c1c(O)c3c(c(O)c1C2=O)C[C@@](O)(C(=O)CO)C[C@@H]3O[C@H]1C[C@H](N)[C@H](O)[C@H](C)O1 [Doxorubicin, doxorubicin]
H2AXγ foci in tissues; doxorubicin 8 mg/kg i.v. twice per week, 14 days, lung, liver, kidney and colon
  DNA damage by accumulation of H2AXγ foci: substantial DNA damage
[2]; Hmox1−/− fibroblasts
  γ-H2AX foci formation: no γ-H2AX foci formation
[2]
  phosphorylation of histone H2AX and γ-H2AX foci: strong increase
HEK293 cells; HEK293 cells, doxorubicin 10 μg/ml
  phosphorylation of ATM, p53 and H2AX: increase

## O=c1cc(-c2cccc3c2Sc2ccccc2S3)oc(N2CCOCC2)c1 [KU55933]
U2OS-SCR reporter cells
  CO-mediated HR (GFP-positive cells) under ATM/ATR blockade: significantly decreased

## CC[C@@]1(O)C(=O)OCc2c1cc1n(c2=O)Cc2cc3ccccc3nc2-1 [camptothecin]
[2]
  phosphorylation of histone H2AX and γ-H2AX foci: strong increase
HEK293 cells; wild-type HEK293 cells, camptothecin 1 μg/ml
  phosphorylation of H2AX: induced phosphorylation
